The series relates to patients suffering from bipolar disorders of type I. Kind of series: Clinical study of agomelatine in type I bipolar patients treated with lithium or valproate. Type of series: in vivo. As to the method:
This study was carried out in 21 patients suffering from bipolar disorders of type I, treated for at least 6 months with lithium (n =14) or valproate (n=7). Treatment for 6 weeks with agomelatine (25 mg/day) was carried out. Of these patients, 19 continued treatment beyond the 6 weeks of acute treatment, and 11 of those continued treatment up to 1 year.

For the molecule `COc1ccc2cccc(CCNC(C)=O)c2c1` [agomelatine, N-[2-(7-methoxy-1-naphthyl)ethyl]acetamide], the “patients in remission at the end of the one year treatment period” value (11 patients who continued treatment up to 1 year, agomelatine 25 mg/day with lithium or valproate) is listed as 10 out of the 11. The “manic or hypomanic episodes observed after the 6 weeks of treatment” value (19 patients who continued beyond 6 weeks, 11 of them up to 1 year, level compatible with a mood stabiliser) is listed as “three”. In addition, the “patients responded positively to the treatment” value (21 type I bipolar patients on lithium or valproate, agomelatine 25 mg/day, 6 weeks treatment) is listed as 81%. For the same molecule, the “patients responded positively by the end of one week of treatment” value (21 type I bipolar patients on lithium or valproate, agomelatine 25 mg/day, end of one week) is recorded as “about 50%”.

The record behind these values is patent US20060240127A1, “Use of agomelatine in obtaining medicaments intended for the treatment of bipolar disorders” (priority 2005, published 2006).
